Assay results as given in US11548900B2, “Oxazino-quinazoline and oxazino-quinoline type compound, preparation method and uses thereof” (BEIJING SCITECH-MQ PHARMACEUTICALS LIMITED, priority 2018, dated 2023).

Key:
[1] = molecular target: HER2 kinase (Homo sapiens (Human), UniProt P04626); test: Inhibition of HER2 kinase activity (ULight-labeled PolyGT substrate); assay type: biochemical; settings: HER2 kinase 10 nM, ATP 10 μM, 2 hours
Method in brief: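 Eleven-point 3-fold dilutions (0.042 nM–2.5 μM final, 1% DMSO) tested in duplicate against 10 nM HER2 with 100 nM ULight-labelled PolyGT and 10 μM ATP. Reaction ran 2 h at RT after 5 min pre-incubation; 665/615 nm TR-FRET ratio used to derive inhibition and IC50.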

[2] = molecular target: EGFR kinase (Homo sapiens (Human), UniProt P00533); test: Inhibition of EGFR kinase activity (ULight-labeled JAK-1 (Tyr1023) peptide substrate); assay type: biochemical; settings: EGFR kinase 0.35 nM, ATP 150 μM, 2 hours
Method in brief: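 TR-FRET kinase assay: 0.35 nM EGFR, 150 μM ATP, 100 nM substrate, 2 h at room temperature in the dark after 5 min enzyme-compound preincubation, 1% DMSO. Compounds tested as 11-point 3-fold series, 2.5 μM to 0.042 nM final, duplicate; IC50 from 665/615 nm ratio-based inhibition.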

[3] = system: BT474 cells; test: Inhibition of cell proliferation, BT474 (CCK-8, 72 h); assay type: cell-based; settings: Homo sapiens, BT-474, 72 h incubation
Method in brief: (§1)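 BT474 and HCC827 seeded at 10,000 and 3000 cells/well respectively, cultured overnight, then exposed to 10-point 3-fold compound dilutions (top stock 10 mM; 0.25% DMSO final) for 72 h. Viability by CCK-8, OD450; survival normalised to untreated and cell-free blanks, IC50 from curve fit.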

[4] = system: HCC827 cells; test: Inhibition of cell proliferation, HCC827 (CCK-8, 72 h); assay type: cell-based; settings: Homo sapiens, 72 h incubation
Method in brief: as §1

HER2 kinase, sequence (P04626 23-1255): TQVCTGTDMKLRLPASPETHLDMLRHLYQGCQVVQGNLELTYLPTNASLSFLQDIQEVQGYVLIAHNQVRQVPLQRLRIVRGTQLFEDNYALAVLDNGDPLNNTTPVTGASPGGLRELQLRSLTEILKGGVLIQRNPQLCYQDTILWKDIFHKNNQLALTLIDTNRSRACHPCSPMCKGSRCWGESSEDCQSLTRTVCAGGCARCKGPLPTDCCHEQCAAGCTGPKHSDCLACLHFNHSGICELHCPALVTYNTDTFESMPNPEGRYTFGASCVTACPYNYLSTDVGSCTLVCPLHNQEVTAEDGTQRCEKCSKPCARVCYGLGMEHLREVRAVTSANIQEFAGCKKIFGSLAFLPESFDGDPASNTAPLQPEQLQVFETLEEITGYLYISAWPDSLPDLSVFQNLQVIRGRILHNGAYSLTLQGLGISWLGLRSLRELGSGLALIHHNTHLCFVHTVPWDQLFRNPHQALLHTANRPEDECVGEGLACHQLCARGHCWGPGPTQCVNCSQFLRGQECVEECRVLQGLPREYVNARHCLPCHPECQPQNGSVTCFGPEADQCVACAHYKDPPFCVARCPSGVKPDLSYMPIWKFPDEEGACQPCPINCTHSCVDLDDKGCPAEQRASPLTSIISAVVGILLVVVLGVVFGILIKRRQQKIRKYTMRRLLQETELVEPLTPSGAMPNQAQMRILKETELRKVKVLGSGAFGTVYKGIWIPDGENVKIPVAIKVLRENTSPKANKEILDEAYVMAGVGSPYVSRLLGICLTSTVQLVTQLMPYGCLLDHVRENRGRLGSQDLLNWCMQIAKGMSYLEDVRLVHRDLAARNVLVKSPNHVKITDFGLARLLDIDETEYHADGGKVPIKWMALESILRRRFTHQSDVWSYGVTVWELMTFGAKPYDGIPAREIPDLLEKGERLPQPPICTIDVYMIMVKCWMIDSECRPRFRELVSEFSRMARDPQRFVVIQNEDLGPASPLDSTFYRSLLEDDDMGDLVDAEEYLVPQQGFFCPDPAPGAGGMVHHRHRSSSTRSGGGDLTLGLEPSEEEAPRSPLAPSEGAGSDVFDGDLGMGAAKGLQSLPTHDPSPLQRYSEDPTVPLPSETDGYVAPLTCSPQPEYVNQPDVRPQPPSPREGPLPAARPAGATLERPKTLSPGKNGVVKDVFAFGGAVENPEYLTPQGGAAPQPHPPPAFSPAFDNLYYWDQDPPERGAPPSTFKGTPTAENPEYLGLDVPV
EGFR kinase, sequence (P00533 25-1210): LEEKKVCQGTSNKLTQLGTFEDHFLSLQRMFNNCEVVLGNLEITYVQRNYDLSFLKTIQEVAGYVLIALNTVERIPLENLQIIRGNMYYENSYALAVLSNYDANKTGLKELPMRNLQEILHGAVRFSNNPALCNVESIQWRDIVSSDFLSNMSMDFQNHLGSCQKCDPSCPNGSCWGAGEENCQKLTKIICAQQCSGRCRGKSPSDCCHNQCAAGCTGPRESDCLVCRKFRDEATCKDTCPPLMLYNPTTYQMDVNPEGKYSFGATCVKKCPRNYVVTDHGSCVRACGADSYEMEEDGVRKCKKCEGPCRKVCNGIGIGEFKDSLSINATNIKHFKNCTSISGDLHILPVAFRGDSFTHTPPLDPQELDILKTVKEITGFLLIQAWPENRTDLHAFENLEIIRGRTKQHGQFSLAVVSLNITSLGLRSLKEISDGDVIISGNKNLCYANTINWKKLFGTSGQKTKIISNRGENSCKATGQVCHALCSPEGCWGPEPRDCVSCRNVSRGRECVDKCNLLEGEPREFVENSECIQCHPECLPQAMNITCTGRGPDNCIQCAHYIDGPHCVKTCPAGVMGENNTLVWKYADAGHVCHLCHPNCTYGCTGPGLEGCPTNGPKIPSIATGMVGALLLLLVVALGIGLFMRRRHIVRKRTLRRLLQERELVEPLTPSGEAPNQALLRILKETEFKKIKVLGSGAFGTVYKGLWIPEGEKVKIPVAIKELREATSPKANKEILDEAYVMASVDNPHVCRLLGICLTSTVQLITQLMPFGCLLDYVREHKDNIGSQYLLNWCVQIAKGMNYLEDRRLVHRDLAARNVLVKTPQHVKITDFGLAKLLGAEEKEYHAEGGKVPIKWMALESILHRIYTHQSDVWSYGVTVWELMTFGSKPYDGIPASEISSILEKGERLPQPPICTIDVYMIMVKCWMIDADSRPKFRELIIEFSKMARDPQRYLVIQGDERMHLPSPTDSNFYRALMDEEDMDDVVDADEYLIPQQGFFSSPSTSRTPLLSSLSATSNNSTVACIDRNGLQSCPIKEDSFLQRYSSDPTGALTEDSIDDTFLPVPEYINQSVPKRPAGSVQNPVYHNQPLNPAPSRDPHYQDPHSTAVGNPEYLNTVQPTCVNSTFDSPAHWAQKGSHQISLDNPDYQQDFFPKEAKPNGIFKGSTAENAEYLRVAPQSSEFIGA

| SMILES | IC50 [1] | IC50 [2] | IC50 [3] | IC50 [4] |
| --- | --- | --- | --- | --- |
| CN1CCN(C/C=C/C(=O)N2CCOc3c2ccc2ncnc(Nc4ccc(Oc5ccccc5)cc4)c32)CC1 [Example 95, (E)-4-(4-methylpiperazin-1-yl)-1-(10-((4-phenoxyphenyl)amino)-2,3-dihydro-4H-[1,4]oxazino[2,3-f]quinazolin-4-yl)but-2-en-1-one] | ≤ 50 nM | ≤ 50 nM | ≤ 50 nM | 50 to 500 nM |
| O=C(/C=C/CN1CCOCC1)N1CCOc2c1ccc1ncnc(Nc3ccc(OCc4cccc(F)c4)c(Cl)c3)c21 [Example 96, (E)-1-(10-((3-chloro-4-((3-fluorobenzyl)oxy)phenyl)amino)-2,3-dihydro-4H-[1,4]oxazino[2,3-f]quinazolin-4-yl)-4-morpholinobut-2-en-1-one] | ≤ 50 nM | ≤ 50 nM | ≤ 50 nM | 50 to 500 nM |
| CN1CCN(C/C=C/C(=O)N2CCOc3c2ccc2ncnc(Nc4ccc(OCc5ccccn5)c(Cl)c4)c32)CC1 [Example 104, (E)-1-(10-((3-chloro-4-(pyridin-2-ylmethoxy)phenyl)amino)-2,3-dihydro-4H-[1,4]oxazino[2,3-f]quinazolin-4-yl)-4-(4-methylpiperazin-1-yl)but-2-en-1-one] | ≤ 50 nM | ≤ 50 nM | ≤ 50 nM | 50 to 500 nM |
| CCN(CC)C/C=C/C(=O)N1CCOc2c1ccc1ncnc(Nc3ccc(OCc4ccccn4)c(Cl)c3)c21 [Example 105, (E)-1-(10-((3-chloro-4-(pyridin-2-ylmethoxy)phenyl)amino)-2,3-dihydro-4H-[1,4]oxazino[2,3-f]quinazolin-4-yl)-4-(diethylamino)but-2-en-1-one] | ≤ 50 nM | ≤ 50 nM | ≤ 50 nM | 50 to 500 nM |
| O=C(/C=C/CN1CCCC1)N1CCOc2c1ccc1ncnc(Nc3ccc(OCc4ccccn4)c(Cl)c3)c21 [Example 106, (E)-1-(10-((3-chloro-4-(pyridin-2-ylmethoxy)phenyl)amino)-2,3-dihydro-4H-[1,4]oxazino[2,3-f]quinazolin-4-yl)-4-(pyrrolidin-1-yl)but-2-en-1-one] | ≤ 50 nM | ≤ 50 nM | ≤ 50 nM | 50 to 500 nM |
| O=C(/C=C/CN1CCCCC1)N1CCOc2c1ccc1ncnc(Nc3ccc(OCc4ccccn4)c(Cl)c3)c21 [Example 107, (E)-1-(10-((3-chloro-4-(pyridin-2-ylmethoxy)phenyl)amino)-2,3-dihydro-4H-[1,4]oxazino[2,3-f]quinazolin-4-yl)-4-(piperidin-1-yl)but-2-en-1-one] | ≤ 50 nM | ≤ 50 nM | ≤ 50 nM | 500 to 5000 nM |
| CC(=O)N1CCN(C/C=C/C(=O)N2CCOc3c2ccc2ncnc(Nc4ccc(OCc5ccccn5)c(Cl)c4)c32)CC1 [Example 108, (E)-4-(4-acetylpiperazin-1-yl)-1-(10-((3-chloro-4-(pyridin-2-ylmethoxy)phenyl)amino)-2,3-dihydro-4H-[1,4]oxazino[2,3-f]quinazolin-4-yl)but-2-en-1-one] | ≤ 50 nM | ≤ 50 nM | ≤ 50 nM | 50 to 500 nM |
| CN(C/C=C/C(=O)N1CCOc2c1ccc1ncnc(Nc3ccc(OCc4ccccn4)c(Cl)c3)c21)C1CCC1 [Example 110, (E)-1-(10-((3-chloro-4-(pyridin-2-ylmethoxy)phenyl)amino)-2,3-dihydro-4H-[1,4]oxazino[2,3-f]quinazolin-4-yl)-4-(cyclobutyl(methyl)amino)but-2-en-1-one] | ≤ 50 nM | ≤ 50 nM | ≤ 50 nM | 50 to 500 nM |
| CC(C)N(C)C/C=C/C(=O)N1CCOc2c1ccc1ncnc(Nc3ccc(OCc4ccccn4)c(Cl)c3)c21 [Example 111, (E)-1-(10-((3-chloro-4-(pyridin-2-ylmethoxy)phenyl)amino)-2,3-dihydro-4H-[1,4]oxazino[2,3-f]quinazolin-4-yl)-4-(isopropyl(methyl)amino)but-2-en-1-one] | ≤ 50 nM | ≤ 50 nM | ≤ 50 nM | 500 to 5000 nM |
